This note sets out measurements from ChEMBL document CHEMBL1144764, “A molecular modeling study of the interaction of 2'-fluoro-substituted analogues of dUMP/FdUMP with thymidylate synthase” (Bioorg Med Chem Lett, 2008).

As a reminder, the Ki is the dissociation constant of the complex between target and ligand, obtained from inhibition or displacement. A higher Ki goes with a looser hold on the target.

The assay deals with Thymidylate synthase (Homo sapiens, UniProt P04818).
Thymidylate synthase, sequence (P04818 whole entry): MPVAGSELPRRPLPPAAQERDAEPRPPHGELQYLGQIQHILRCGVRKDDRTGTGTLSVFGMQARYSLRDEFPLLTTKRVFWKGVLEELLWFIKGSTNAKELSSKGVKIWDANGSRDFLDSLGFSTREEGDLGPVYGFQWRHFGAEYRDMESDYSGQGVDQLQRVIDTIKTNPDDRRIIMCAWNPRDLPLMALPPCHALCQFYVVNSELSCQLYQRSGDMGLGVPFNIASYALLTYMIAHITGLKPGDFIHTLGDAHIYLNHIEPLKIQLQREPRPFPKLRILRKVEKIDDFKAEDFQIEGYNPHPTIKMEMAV

Description: Binding affinity to human recombinant thymidylate synthase

Compound `O=c1ccn([C@@H]2O[C@H](COP(=O)(O)O)[C@@H](O)C2(F)F)c(=O)[nH]1` gave a Ki of 433 µM.
Consider `O=c1ccn([C@@H]2O[C@H](COP(=O)(O)O)[C@@H](O)[C@@H]2F)c(=O)[nH]1`, for which the affinity, expressed as Ki, was 10.3 µM.
